# Like-named read-outs stand apart in the source and are kept apart here.
# Experiments:
# [1] = Single-dose plasma pharmacokinetics of telavancin in pediatric subjects (noncompartmental analysis); assay type: in vivo, human; settings: single 10 mg/kg IV infusion over 60 min; for Tmax / Cmax / half-life: iv; for Tmax: median (minimum–maximum), read-out: T max (time at maximum concentration); for Cmax: read-out: C max (maximum plasma concentration); for half-life: read-out: T 1/2 (terminal elimination half-life) (converted)
# Description: The drug was infused over 60 min on Day 1. Blood samples were collected at 1, 1.5, 2, 6, 12, and 24 h following the start of infusion for PK analysis.
# Subjects with missing early PK samples were included in the PK population for plasma concentrations at each collected time point, but they were excluded from the PK modeling. […] The primary endpoints calculated from the plasma concentration-time data were maximum observed plasma concentration (C max), time to reach maximum plasma concentration (T max), area under the plasma concentration versus time curve from time 0 to the last sample with measurable analyte concentration (AUC0-last), area under the concentration versus time curve extrapolated to infinity (AUCinf), and terminal elimination half-life (T 1/2). CL and apparent steady-state volume of distribution (Vss) were also calculated from the plasma concentration-time data. PK parameters were calculated using noncompartmental analysis with Phoenix WinNonlin v8.1 (Certara, Princeton, NJ, USA).
# For calculation of mean concentrations at each time point and generation for mean concentration versus time profiles, all values below the limit of quantification (BLQ) were set to 0. […] For the NCA, actual infusion durations and actual sampling times were used. Infusion duration was calculated as the difference between the start of infusion time and the end of infusion time. Actual sampling times were calculated as the difference between the start of infusion time and the sampling time.
# For PK analysis and individual concentration versus time plots, a concentration that was BLQ was assigned a value of 0, if it occurred in a profile before the first measurable concentration and was set to missing thereafter, if two BLQ values occurred in succession after C max, the profile was deemed to have terminated at the first BLQ value, and any subsequent concentrations were omitted from PK calculations.
# [2] = Excerpt: All study procedures were reviewed and approved by the respective Institutional Review Board for each study site. Prior to any study procedures, written informed consent from a parent or legal guardian and assent (if appropriate for older patients) were obtained. The patient population consisted of subjects aged >12 months to <17 years of age who required systemic antibiotic therapy for the treatment or prevention of known or suspected bacterial infection. Subjects were enrolled into four cohorts stratified by age: adolescents (12–17 years of age), older children (6–11 years of age), younger children (2–5 years of age), and infants (1–2 years of age). […] The study consisted of a screening period followed by a treatment period and a safety follow-up period through Day 8 ± 1 day.
# Safety was monitored during both the screening and treatment periods by physical exams, vital signs, urinalysis, and clinical laboratory measures (complete blood count with differential, serum chemistry, creatinine, and liver enzymes); AEs and concomitant medications were recorded from screening through follow-up on Day 8 (± 1 day). Medical and medication history and demographics were collected at screening. Vital signs (heart rate, blood pressure, respiratory rate, and body temperature) were collected at screening, Days 1 and 2 of the study.
# [3] = five courses in three adolescent cystic fibrosis patients; 8.7–10 mg/kg daily for up to 3 weeks; cited from earlier work
# [4] = Cohort 3 (2–5 years), N = 1, plasma, noncompartmental
# [5] = human, in vivo, 10 mg/kg, Cohort 1 (12–17 years), N = 13, plasma, mean ± SD
# [6] = human, in vivo, 10 mg/kg, Cohort 2 (6–11 years), N = 6, plasma, mean ± SD
# [7] = Cohort 1 (12–17 years), of 16 AEs, single 10 mg/kg IV
# [8] = Cohort 2 (6–11 years), of 11 AEs, single 10 mg/kg IV
# [9] = all cohorts, three of 22 subjects, single 10 mg/kg IV
# [10] = all cohorts, two of 22 subjects, single 10 mg/kg IV
structure (smiles),measurement,setting,value
CCCCCCCCCCNCCN[C@@]1(C)C[C@H](O[C@H]2[C@H](Oc3c4cc5cc3Oc3ccc(cc3Cl)[C@@H](O)[C@@H](NC(=O)[C@@H](CC(C)C)NC)C(=O)N[C@@H](CC(N)=O)C(=O)N[C@H]5C(=O)N[C@H]3C(=O)N[C@H](C(=O)N[C@H](C(=O)O)c5cc(O)c(CNCP(=O)(O)O)c(O)c5-c5cc3ccc5O)[C@H](O)c3ccc(c(Cl)c3)O4)O[C@H](CO)[C@@H](O)[C@@H]2O)O[C@@H](C)[C@H]1O [telavancin],CL (clearance),"[1]; Cohort 3 (2–5 years), N = 1",0.728 mL/min/kg
same,T max (time at maximum concentration),"[1]; Cohort 3 (2–5 years), N = 1",1.18 h
same,Mean plasma telavancin concentration,"[1]; Cohort 3 (2–5 years), N = 1, nominal time 1 h after start of infusion",53.1
same,Mean plasma telavancin concentration,"[1]; Cohort 3 (2–5 years), N = 1, nominal time 1.5 h",45.0
same,Mean plasma telavancin concentration,"[1]; Cohort 3 (2–5 years), N = 1, nominal time 2 h",37.3
same,Mean plasma telavancin concentration,"[1]; Cohort 3 (2–5 years), N = 1, nominal time 6 h",18.0
same,Mean plasma telavancin concentration,"[1]; Cohort 3 (2–5 years), N = 1, nominal time 12 h",2.67
same,Mean plasma telavancin concentration,"[1]; Cohort 3 (2–5 years), N = 1, nominal time 24 h",0.146
same,C max (maximum plasma concentration),"[1]; Cohort 3 (2–5 years), N = 1, plasma",53.1 µg/mL
same,T 1/2 (terminal elimination half-life),"[1]; Cohort 3 (2–5 years), N = 1, plasma, 10 mg/kg",2.73 h
same,AUC0-inf (area under the curve extrapolated to infinity),[1]; [4],229 µg·h/mL
same,AUC0-last (area under the curve from time zero until the last PK sample),[1]; [4],228 µg·h/mL
same,Tmax,"[1]; human, in vivo, 10 mg/kg, Cohort 1 (12–17 years), N = 13",1.02 h
same,Cmax,[1]; [5],58.3 ± 8.4 µg/mL
same,half-life,[1]; [5],5.6 ± 1.01 h
same,Tmax,"[1]; human, in vivo, 10 mg/kg, Cohort 2 (6–11 years), N = 6",1.09 h
same,Cmax,[1]; [6],60.1 ± 11.9 µg/mL
same,half-life,[1]; [6],5.19 ± 0.751 h
same,clearance,"[1]; human, in vivo, Cohort 1 (12–17 years), N = 13, mean ± SD, read-out: CL (clearance) (converted)",0.497 mL/min/kg
same,AUC(0-inf),"[1]; human, in vivo, Cohort 1 (12–17 years), N = 13, plasma, noncompartmental, mean ± SD, read-out: AUC0-inf (area under the curve extrapolated to infinity)",345 ± 58.5 µg·h/mL
same,AUC(0-t),"[1]; human, in vivo, Cohort 1 (12–17 years), N = 13, plasma, noncompartmental, mean ± SD, read-out: AUC0-last (area under the curve from time zero until the last PK sample)",326 ± 50 µg·h/mL
same,Number of adverse events,"[2]; Cohort 1 (12–17 years), N = 14, across six patients, single 10 mg/kg IV",16
same,Adverse events deemed probably related to telavancin administration,"[2]; Cohort 1 (12–17 years), fifteen of the 16 events",94%
same,Number of adverse events mild in severity,[2]; [7],13
same,Number of adverse events moderate in severity,[2]; [7],3
same,Number of adverse events,"[2]; Cohort 2 (6–11 years), N = 7, across four patients, single 10 mg/kg IV",11
same,Number of adverse events mild in severity,[2]; [8],nine
same,Number of adverse events moderate in severity,[2]; [8],two
same,Adverse events considered probably related to telavancin administration,"[2]; Cohort 2 (6–11 years), six of the 11 events",55%
same,Adverse events,"[2]; Cohort 3 (2–5 years), single subject, single 10 mg/kg IV",No AEs were reported
same,Subjects with adverse events,"[2]; all cohorts, 10 of the 22 subjects, single 10 mg/kg IV, through Day 8 ± 1",45%
same,Total number of adverse events (AEs),"[2]; all cohorts, 22 subjects 2–17 years, single 10 mg/kg IV, through Day 8 ± 1",27
same,Serious adverse events,"[2]; all cohorts, 22 subjects, single 10 mg/kg IV",no serious AEs
same,Subjects with nausea,"[2]; all cohorts, four of 22 subjects, single 10 mg/kg IV",18%
same,Subjects with foamy urine,[2]; [9],14%
same,Subjects with taste disturbance/metallic taste,[2]; [9],14%
same,Subjects with dizziness,[2]; [10],9%
same,Subjects with headache,[2]; [10],9%
same,Tolerability of a single dose,"[2]; all pediatric age cohorts, single 10 mg/kg IV",well-tolerated
same,QT interval (12-lead ECG),"[2]; one subject in Cohort 2 (6–11 years), ECG 1.5–2.5 h after start of infusion, moderate, resolved prior to Day 8",prolonged QT interval
same,Infusion reactions,"[2]; single 10 mg/kg infusion administered over an hour, all cohorts",no infusion reactions
same,Clinically significant abnormalities following telavancin administration,"[2]; worsened ALT and LDH in one Cohort 1 subject, prolonged QT in one Cohort 2 subject, moderate, resolved prior to Day 8",three
same,Serum creatinine across courses of treatment,[3],remained stable
